Columns and labels:
[1] = molecular target: T1, folate binding protein on the KB cells (Homo sapiens, UniProt P15328); experiment: Binding of alpha and gamma isomers of ^99mTc-oxa-folate to KB cells at 4° C.; settings: 30 min; for competition with native folate for folate binding protein on KB cells: plus 250-260 pmol cold native folate, 4° C. (FIG. 4, white bars); for binding to KB cells relative to that observed with 10 pmol of ^3H-folate: trace amounts (~0.5 μCi), 4° C., no cold folate (FIG. 4, dark bars)
T1 construct: host or cells: KB cells
T1 sequence (P15328 25-234): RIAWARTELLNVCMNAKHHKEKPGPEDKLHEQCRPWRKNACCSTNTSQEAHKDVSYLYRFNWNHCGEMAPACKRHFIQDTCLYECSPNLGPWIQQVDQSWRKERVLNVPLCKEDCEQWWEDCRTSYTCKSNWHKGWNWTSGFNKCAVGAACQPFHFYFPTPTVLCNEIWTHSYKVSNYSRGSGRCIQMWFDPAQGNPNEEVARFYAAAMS
Procedure: The ability of the alpha and gamma isomers of ^99mTc-oxa-folate to bind to KB cells was studied at 4° C. KB cells (˜5×10^5 cells/well) were seeded into 35-mm wells and incubated for 48 hours as described in example 17 above. The alpha and gamma isomers of ^99mTc-oxa-folate, were prepared and purified as described in examples 14 and 16. The cells were then cooled to 4° C. for 30 min and incubated with the following mixtures for 30 min at 4° C.: • 1. 10 pmol of ^3H-folate • 2. 10 pmol of ^3H-folate and 250 pmol of native folate • 3. […] Trace amounts (˜0.5 μCi) of ^99mTc-Oxa-γ-folate • 6. Trace amounts (˜0.5 μCi) of ^99mTc-Oxa-γ-folate and 260 pmol of native folate
(§1) Following the incubation period, the cells were washed 3 times with ice-cold Tris-buffered saline. The cells were then stripped from the plates using 1.0 mL of water. Aliquots of the water/cell mixture were assayed for the respective radioisotopes and for cellular protein (to determine the number of KB cells present in each well). The radioassay data were used to calculate the % of radiolabeled compound bound to the cells in the absence and presence of unlabeled native folate. Data in FIG. 4 are presented as the percentage bound, relative to the % bound in the control wells containing 10 pmol of ^3H-folate.

cell surface FBP = cell surface FBP (Homo sapiens, UniProt P15328); settings: in the presence of an equimolar amount of conjugate; cited from earlier work
Sequence of cell surface FBP (P15328 25-234): as above

MA104 cells = settings: cited from earlier work
JAR tumors = experiment: Biodistribution at MRI dose level in nude mice with subcutaneous JAR tumors; settings: 60 min, 79.2 μmol/kg dose
Procedure: Biodistribution studies were performed using female nu/nu mice implanted with subcutaneous JAR tumors using the general procedures described in the example above. Animals were sacrificed 60 min post IV injection of an “MRI” dose level (0.1 mmol/kg) of ^153Gd/Gd-DO3A-APA-(α)-folate, ^153Gd/Gd-DO3A-APA-(γ)-folate or Bis(^153Gd/Gd-DO3A-APA)folate and selected organs were removed, weighed, and assayed for radioactivity, in order to determine the % injected dose/g-tissue (% ID/g) in the tumors.

KB cells = experiment: In vitro exchange study with cold native folate in the medium, KB cells; format: cell-based, human; settings: 24 hours, 37° C., medium with cold native folate (250 nM), FIG. 4A
Procedure: (§2) Exchange studies were performed to examine the effect of native folate on the radioactivity levels in KB or JAR cells that had been pre-loaded with a saturating level of radiolabeled Gd-folates or native folate in vitro. ^3H-folate, ^153Gd-DO3A-APA-(γ)-folate or ^153Gd-DO3A-APA-(α)-folate (250 pmol) was incubated with KB or JAR cells as described in Example 18. At the end of the 30-min incubation period, these ^153Gd-folate or ^3H-folate-loaded cells were washed five times with ice-cold media containing 250 nM cold, native folate and were then incubated at 37° C. for 24 hours with media that contained 250 pmol of cold folate. At predetermined intervals during this time, the incubation medium was removed and replaced with fresh medium at 37° C. The radioactivity present in each aliquot of the incubation medium was used to determine the rate at which radioactivity from the ^3H-folate, ^153Gd-DO3A-APA-(γ)-folate or ^153Gd-DO3A-APA-(α)-folate washed out of the cells. At the end of the study, the cells were suspended in one ml of water and assayed for radioactivity and protein content.

JAR cells [2] = molecular target: T2, JAR cells (Homo sapiens, UniProt P15328); experiment: In vitro exchange study with cold native folate in the medium, JAR cells; format: cell-based
T2 construct: host or cells: JAR cells
T2 sequence (P15328 25-234): as above
Procedure: as §2

[3] = molecular target: T1, folate binding protein on the KB cells; experiment: Binding of ^3H-folate and alpha or gamma isomer of ^153Gd-DO3A-APA-folate to KB cells at 4° C. with and without excess folate; settings: 30 min
Procedure: In a second experiment, the ability of the alpha and gamma isomers of ^153Gd-DO3A-APA-folate to bind to KB cells at 4° C. was studied. KB cells (˜5×10^5 cells/well) were seeded into 35-mm wells and incubated for 48 hours as described above. The cells were then cooled to 4° C. for 30 min and incubated with the following mixtures for 30 min at 4° C.: • 1. 10 pmol of ^3H-folate • 2. 10 pmol of ^3H-folate and 250 pmol of native folate • 3. 10 pmol of ^153Gd/Gd(DO3A-APA-α-folate) • 4. 10 pmol of ^153Gd/Gd(DO3A-APA-α-folate) and 250 pmol of native folate • 5. 10 pmol of ^153Gd/Gd(DO3A-APA-γ-folate) • 6. 10 pmol of ^153Gd/Gd(DO3A-APA-γ-folate) and 250 pmol of native folate
as §1, with “ice-old” for “ice-cold”, “2” for “4”

[4] = molecular target: T3, folate binding protein on KB cells (Homo sapiens, UniProt P15328); experiment: Binding of ^153Gd-DO3A-APA-folate (α or γ isomer) or ^3H folate to KB cells at 37° C. in competition with cold native folate; settings: 10 pmol labelled compound, 0-900 pmol cold native folate, 30 min, FIG. 1
T3 construct: host or cells: KB cells
T3 sequence (P15328 25-234): as above
Procedure: (§3) Cell culture: KB cells (a human nasopharyngeal epidermal carcinoma cell line) and JAR cells (a human choriocarcinoma cell line) were obtained from ATCC (American Type Culture Collection). Both cell lines are reported to overexpress transcripts encoding folate binding protein. […] The media for each cell line was supplemented with 10% defined fetal calf serum (HyClone, Inc.) Monolayers were cultured at 37° C. in a humidified atmosphere containing 5% CO2.
(§4) Forty-eight hours prior to each experiment, 5×10^5 cells were seeded into 35 mm culture dishes and allowed to grow for 2 days in folate-depleted media. The cells were then washed with Tris-buffered saline (TBS=150 mM NaCl, 50 mM Tris, pH 7.5) and 1 mL of fresh media containing 10 pmol ^153Gd-DO3A-APA-folate (α or γ isomer) and 0-900 pmol of cold native folate per sample was added. Control experiments were performed using 10 pmol of ^3H folate (Amersham International) and 0-900 pmol of cold native folate. The cells were incubated for 30 min at 37° C. They were then washed three times with ice cold TBS and suspended in one ml of water. Cell associated radioactivity was determined by gamma (^153Gd-folate) or scintillation counting (^3H-folate) of a 500 μl aliquot of this suspension; 100 μl was used in the BCA protein assay (Pierce catalog # 23225), which was used to determine and normalize for cellular protein content.

JAR cells [5] = molecular target: T2, JAR cells; experiment: Binding of ^153Gd-folates or ^3H folate to JAR cells at 37° C.
Procedure: as §3, §4

Compound: 99m-Technetium complex of 12-(N-Pteroyl-α-L-glutamyl)-3,3,9,9-tetramethyl-5-oxa-4,8-diaza-2,10-dodecanedione dioxime [^99mTc-Oxa-α-folate]
- competition with native folate for folate binding protein on KB cells [1]: do compete for folate binding protein on the KB cells
- binding to KB cells relative to that observed with 10 pmol of ^3H-folate [1]: 140%

Compound: 99m-Technetium complex of 12-(N-Pteroyl-γ-L-glutamyl)-3,3,9,9-tetramethyl-5-oxa-4,8-diaza-2,10-dodecanedione dioxime [^99mTc-Oxa-γ-folate]
- competition with native folate for folate binding protein on KB cells [1]: do compete for folate binding protein on the KB cells
- binding to KB cells relative to that observed with 10 pmol of ^3H-folate [1]: to the same extent

Compound: CC(=O)N(O)CCCCCNC(=O)CCC(=O)N(O)CCCCCNC(=O)CCC(=O)N(O)CCCCCNC(=O)C(CCC(=O)O)NC(=O)c1ccc(NCc2cnc3nc(N)[nH]c(=O)c3n2)cc1 (single isomer, unassigned) [DF-folate (α) isomer]
- decrease in bound ^3H folic acid (cell surface FBP): no ability to compete

Compound: CC(=O)N(O)CCCCCNC(=O)CCC(=O)N(O)CCCCCNC(=O)CCC(=O)N(O)CCCCCNC(=O)CCC(NC(=O)c1ccc(NCc2cnc3nc(N)[nH]c(=O)c3n2)cc1)C(=O)O (stereo not drawn) [DF-folate (γ) conjugate]
- decrease in bound ^3H folic acid (cell surface FBP): 50%

Compound: CC(C)(C)OC(=O)NCCCC(CCCNC(=O)OC(C)(C)C)(CCCNC(=O)OC(C)(C)C)NC(=O)CCC(=O)NC(CCC(=O)OCc1ccccc1)(CCC(=O)OCc1ccccc1)CCC(=O)OCc1ccccc1 [Example 11, N-[1,5-Bis(benzyloxycarbonyl)-3-[2-(benzyloxycarbony)ethyl)]-3-pentyl]-N′-[1,7-bis-(t-butoxycarbony)amino-[4-(3-(t-butyloxycarbonyl)propyl]-4-heptyl]butanedioic diamide]
- melting point: 95 to 96 °C

Compound: Nc1nc2ncc(CNc3ccc(C(=O)N[C@@H](CCC(=O)O)C(=O)O)cc3)nc2c(=O)[nH]1 [folic acid]
- binding by MA104 cells (MA104 cells): 1-2 pmol folic acid/10^6 cells

Compound: Bis(^153Gd-DO3A-APA)-folate
- Tumor % ID/g (JAR tumors): 1.48 (0.12) % ID/g
- [Gd] in tumor tissue (JAR tumors; calculated from % ID/g): 55 (4) μM

Compound: Gd-DO3A-APA-(γ)-folate
- radioactivity lost from loaded KB cells to the incubation medium (KB cells): 20%
- radioactivity from loaded JAR cells found in the medium (JAR cells [2]; after 6 hours, 37° C., medium with cold native folate, FIG. 4B): 30%
- amount of compound washed from the JAR cells (JAR cells [2]; at 24 hours): similar

Compound: ^153Gd-DO3A-APA-(γ)-folate
- competition with native folate for folate binding protein on KB cells ([3]; 10 pmol plus 250 pmol cold native folate, 4° C. (FIG. 2, white bars)): do compete for folate binding protein on the KB cells
- binding to KB cells compared with 10 pmol of ^3H-folate ([3]; 10 pmol, 4° C., no cold folate (FIG. 2, dark bars)): to the same extent
- amount bound to the KB cells [4]: No significant differences
- ability to compete with cold native folate for binding to the JAR cells (JAR cells [5]; 10 pmol, 0-900 pmol cold folate, 30 min, 37° C.): equally effective
- binding to JAR cells compared with the radiolabeled control (^3H-folate) (JAR cells [5]; comparable test conditions, FIG. 1A): about half as effective

Source: US7399460B2, “Metal complexes derivatized with folate for use in diagnostic and therapeutic applications” (Bracco International B.V., priority 1998, dated 2008)
